Laboratory results reported in paper PMC7536232, “Saturation transfer difference NMR on the integral trimeric membrane transport protein GltPh determines cooperative substrate binding” (Scientific Reports, 2020).

Molecular target: T1, GltPh (Pyrococcus horikoshii, UniProt O59010)
T1 construct: gene PH1295; WT GltPh, homotrimer, detergent-solubilised (DDM)
T1 sequence (O59010 1-425): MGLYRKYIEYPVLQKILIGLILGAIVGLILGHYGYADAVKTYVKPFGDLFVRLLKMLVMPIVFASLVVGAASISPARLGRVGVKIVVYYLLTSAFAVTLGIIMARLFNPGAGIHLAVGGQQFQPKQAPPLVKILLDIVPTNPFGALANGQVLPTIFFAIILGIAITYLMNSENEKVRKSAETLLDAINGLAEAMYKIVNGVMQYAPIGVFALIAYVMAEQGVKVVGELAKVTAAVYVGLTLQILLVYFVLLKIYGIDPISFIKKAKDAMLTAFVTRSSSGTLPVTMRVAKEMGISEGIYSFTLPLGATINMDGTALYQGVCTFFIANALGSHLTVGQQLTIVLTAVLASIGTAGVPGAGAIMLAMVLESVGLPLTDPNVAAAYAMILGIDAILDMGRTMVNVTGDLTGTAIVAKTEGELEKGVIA
Assay: STD NMR titration, γ-protons; DDM micelles ([…] in proteoliposomes)
Format: binding

N[C@@H](CCC(=O)O)C(=O)O [L-glutamate]
Kd: 414 µM
